The text below walks through data of ChEMBL document CHEMBL1201862, “PubChem BioAssay data set” (2004).

SMILES strings stand for the structures.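 Following 48 hours of exposure in 96-well plates, responses at five concentrations were used to interpolate endpoints linearly. Here, GI50 denotes the concentration required for 50% inhibition of growth.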 Active and inactive are the calls of the source. Cut-off read from the data, not from the text of the source: active = GI50 up to about 1.1 µM and inactive = higher.

Some test systems named below: SK-OV-3; RPMI-8226; A549; SR; HCC 2998; MCF7; 786-0; UO-31; NCI-H460; TK-10; SK-MEL-28; MOLT-4; CCRF-CEM; U-251; UACC-257; HCT-116; HOP-92; HOP-62; M14; OVCAR-8.
Common to all, as to experiment: NCI tumour cell line growth inhibition, 48 h

Consider `COc1ccc(Cc2nc3cc(Cl)ccc3o2)cc1`, for which the GI50 in the assay on SK-OV-3 is 47.3 µM (inactive); in the assay with RPMI-8226, 21.3 µM (inactive); with A549 it was 35.4 µM (inactive); in the assay with SR, 23.7 µM (inactive); in the assay on HCC 2998, 20.8 µM (inactive); with MCF7 it was 27.9 µM (inactive). For the same compound, the GI50 was 33.3 µM (inactive) in the assay on 786-0; 33.3 µM (inactive) in the assay with UO-31; 31.2 µM (inactive) in the assay on NCI-H460; 35.7 µM (inactive) in the assay with TK-10; 37.2 µM (inactive) with SK-MEL-28; 18.8 µM (inactive) in the assay with MOLT-4. Further, the GI50 is 12.2 µM (inactive) in the assay on CCRF-CEM; 27.1 µM (inactive) with U-251; 24 µM (inactive) in the assay on UACC-257; 36.5 µM (inactive) with HCT-116; 41.2 µM (inactive) in the assay with HOP-92; > 100 µM (inactive) in the assay with HOP-62. Besides, the GI50 with M14 is 32.2 µM (inactive); in the assay with OVCAR-8, 40.8 µM (inactive).

Take `Clc1ccc(C(c2ccc(Cl)cc2)N2CCNCC2)cc1`: the GI50 with SK-OV-3 was 5.43 µM (inactive); in the assay on RPMI-8226 it was 1.83 µM (inactive); with A549, 2.74 µM (inactive); in the assay on SR, 1.75 µM (inactive); with HCC 2998, 1.46 µM (inactive); in the assay with MCF7, 1.91 µM (inactive). Moreover, the GI50 was 1.77 µM (inactive) in the assay with 786-0; 2.02 µM (inactive) in the assay with UO-31; 2.05 µM (inactive) with NCI-H460; 1.64 µM (inactive) with TK-10; 1.81 µM (inactive) in the assay with SK-MEL-28; 1.87 µM (inactive) with MOLT-4. Further, the GI50 was 2.34 µM (inactive) with CCRF-CEM; 2.02 µM (inactive) with U-251; 2.12 µM (inactive) with UACC-257; 1.73 µM (inactive) with HCT-116; 3.01 µM (inactive) with HOP-92; 1.87 µM (inactive) in the assay on HOP-62. Further, the GI50 in the assay with M14 is 1.73 µM (inactive); in the assay with OVCAR-8, 2.07 µM (inactive).

As to `O=C1OC[C@H]2[C@@H]1[C@H]1O[C@@H]2C2=C(CCC2)C1=O`, the GI50 in the assay with SK-OV-3, in the assay on RPMI-8226, in the assay on A549, with SR, in the assay with HCC 2998 and in the assay on MCF7 was > 100 µM (inactive) throughout. The GI50 in the assay on 786-0 is > 100 µM (inactive); with UO-31, > 100 µM (inactive); with NCI-H460, > 100 µM (inactive); in the assay with TK-10 it was > 100 µM (inactive); in the assay on SK-MEL-28, > 100 µM (inactive); in the assay on MOLT-4, 1.11 µM (active). Further, the GI50 with CCRF-CEM, in the assay with U-251, in the assay with UACC-257, with HCT-116, with HOP-92 and in the assay with HOP-62 was > 100 µM (inactive) throughout. Also, the GI50 with M14 and with OVCAR-8 was > 100 µM (inactive) in each case.

As for `CC1CN=C(Nc2ccccc2)S1` (stereo not given), the GI50 in the assay with SK-OV-3, in the assay with RPMI-8226, with A549, in the assay on SR, in the assay with HCC 2998 and with MCF7 was > 100 µM (inactive) in each case. The GI50 in the assay on 786-0 was > 100 µM (inactive); in the assay on UO-31, 56.8 µM (inactive); with NCI-H460, > 100 µM (inactive); in the assay on TK-10, > 100 µM (inactive); in the assay with SK-MEL-28 it was > 100 µM (inactive); in the assay on MOLT-4 it was > 100 µM (inactive). The GI50 in the assay with CCRF-CEM, with U-251, in the assay on UACC-257, in the assay on HCT-116, with HOP-92 and in the assay on HOP-62 was > 100 µM (inactive) in each case. Moreover, the GI50 in the assay with M14 and in the assay on OVCAR-8 was > 100 µM (inactive) each time.

Take `CCCCCCCCCCCCOCCCCCCCCC/C=C/c1ccc2c(c1)OCCOCCOCCOCCO2`: the GI50 in the assay with SK-OV-3 was 17.5 µM (inactive); in the assay on RPMI-8226 it was 17.7 µM (inactive); with A549 it was 17.6 µM (inactive); in the assay with SR, 21 µM (inactive); with HCC 2998, 17.9 µM (inactive); with MCF7 it was 16.3 µM (inactive). For the same compound, the GI50 in the assay on 786-0 is 13.6 µM (inactive); in the assay with UO-31 it was 19.1 µM (inactive); with NCI-H460 it was 18.4 µM (inactive); in the assay with TK-10, 19.6 µM (inactive); with SK-MEL-28 it was 30.7 µM (inactive); in the assay on MOLT-4 it was 28.7 µM (inactive). Moreover, the GI50 was 39.5 µM (inactive) in the assay on CCRF-CEM; 22.8 µM (inactive) with U-251; 27 µM (inactive) in the assay on UACC-257; 16 µM (inactive) in the assay with HCT-116; 12.2 µM (inactive) in the assay on HOP-92; 28 µM (inactive) in the assay with HOP-62. The results for the GI50 in the assay on M14 and in the assay with OVCAR-8 were 25.4 µM (inactive) and 12.7 µM (inactive), respectively.
